# Laboratory results: patent publication US4883814A, “1-aryloxy-3-(substituted alkylamino)-2-propanols and use as β-blocker” (Merck & Co., Inc., priority 1988, dated 1989)
# Key:
# β1 -receptor [1] = biological target: T1, β1 -receptor (Cavia porcellus, UniProt H0W3H1); test: inhibition of the positive chronotropic actions of isoproterenol in isolated guinea pig atrial preparations; settings: isolated guinea pig atria; vs isoproterenol positive chronotropic action; read-out: pA2 values β1 (atria) (converted)
# T1 construct: isolated guinea pig atrial preparations; from tissue; host or cells: isolated guinea pig atria
# T1 sequence (H0W3H1 1-470): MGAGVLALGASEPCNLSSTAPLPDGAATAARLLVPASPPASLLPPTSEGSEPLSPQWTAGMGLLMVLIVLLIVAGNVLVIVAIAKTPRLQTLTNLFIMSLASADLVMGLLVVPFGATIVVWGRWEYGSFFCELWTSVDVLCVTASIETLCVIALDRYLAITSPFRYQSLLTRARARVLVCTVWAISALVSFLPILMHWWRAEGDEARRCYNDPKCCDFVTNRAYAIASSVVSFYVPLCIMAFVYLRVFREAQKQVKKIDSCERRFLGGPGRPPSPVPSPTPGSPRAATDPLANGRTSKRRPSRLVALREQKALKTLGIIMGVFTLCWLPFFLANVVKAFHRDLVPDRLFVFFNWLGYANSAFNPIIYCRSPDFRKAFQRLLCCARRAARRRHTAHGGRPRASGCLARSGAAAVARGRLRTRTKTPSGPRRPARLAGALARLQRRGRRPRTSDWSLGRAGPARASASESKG
# Description: (§1) The in vitro β-adrenergic blocking properties of the novel compounds of this invention were evaluated in accordance with standard procedures. The interaction with the β1 -receptor was determined via inhibition of the positive chronotropic actions of isoproterenol in isolated guinea pig atrial preparations. β2 potency was determined by using isolated guinea pig tracheal chains contracted with PGF2α and by measuring inhibition of isoproterenol-induced relaxation.
# β1 -receptor [2] = test: as above; settings: β1 (atria) versus β2 (trachea), from pA2 values
# Description: as §1
# β2 = biological target: T2, β2 (Cavia porcellus, UniProt Q8K4Z4); test: inhibition of isoproterenol-induced relaxation in isolated guinea pig tracheal chains contracted with PGF2α; settings: vs isoproterenol-induced relaxation, read-out: pA2 values β2 (trachea) (converted)
# T2 construct: isolated guinea pig tracheal chains; from tissue; host or cells: isolated guinea pig tracheal chains
# T2 sequence (Q8K4Z4 whole entry): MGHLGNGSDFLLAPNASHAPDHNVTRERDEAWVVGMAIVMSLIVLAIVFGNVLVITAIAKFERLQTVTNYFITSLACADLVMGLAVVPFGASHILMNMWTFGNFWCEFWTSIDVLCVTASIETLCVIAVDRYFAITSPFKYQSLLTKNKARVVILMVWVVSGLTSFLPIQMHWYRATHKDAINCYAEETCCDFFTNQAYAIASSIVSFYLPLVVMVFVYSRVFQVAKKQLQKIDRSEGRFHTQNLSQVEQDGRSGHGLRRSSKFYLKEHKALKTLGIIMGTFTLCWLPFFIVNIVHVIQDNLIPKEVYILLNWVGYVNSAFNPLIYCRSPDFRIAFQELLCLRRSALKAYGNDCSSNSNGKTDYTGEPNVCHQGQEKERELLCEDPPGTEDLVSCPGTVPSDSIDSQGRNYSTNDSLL
# Description: as §1
Structure (SMILES),Kb (β1 -receptor [1]) [nM],Kb (β2) [nM],Cardioselectivity ratio (β1 -receptor [2])
N#Cc1ccccc1OCC(O)CNCCc1ccncc1 (stereo not shown),,,4.1
N#Cc1ccccc1OCC(O)CNCCc1ccccn1 (stereo not shown),25.7,64.6,2.5
N#Cc1ccccc1OCC(O)CNCCc1cccnc1 (stereo not shown),15.5,89.1,5.8

# Further lines, with some results ahead:
Kb (β1 -receptor [1]) [nM],Kb (β2) [nM],Structure (SMILES),Cardioselectivity ratio (β1 -receptor [2])
23.4,138,N#Cc1ccccc1OCC(O)CNCCN1CCOCC1 (stereo not shown),5.9
34.7,34700,N#Cc1ccccc1OCC(O)CNCCN1CCNCC1 (stereo not shown),1000
